In patent US4826873A, “2,3-dihydroxy-3-phenyl-N-(2-phenyl-ethyl)-propionic acid amides derivatives thereof” (priority 1986, dated 1989):

Key:
[1] = tested on: CCl4-initiated lipid peroxidation of liver microsomes (MDA); assay: CCl4-initiated lipid peroxidation of liver microsomes, MDA formation in vitro (Table 6); type: biochemical, mice (phenobarbital-induced); settings: 1 mM compound
Experimental: (§1) Male Kunming strain mice weighing 18-22 grams were used throughout the experiments. The compound to be tested was suspended in 5% Tween 80 and given orally by gavage. The vehicle of 5% Tween 80 solution was administered to control mice via the same route. In the vitro experiments,the compound was dissolved in dimethylformamide and added directly into the incubation mixture.
(§2) CCl4 hepatotoxicity has been considered to be due to formation of free radicals which initiate lipid peroxidation or covalent binding to macromolecules of microsomes. Thus, the structures and function of cell membranes were destroyed. The effect of the compound on CCl4 induced lipid peroxidation (malonic dialdehyde, MDA, in vitro, and diene conjugates in vivo) and ^14 CCl4 covalent binding to lipids and proteins of microsomes were investigated.
MDA formation: The compound was pre-incubated with NADPH-reduced liver microsomes from phenobarbital-induced mice at 37° C. for 15 minutes, 10 ul of CCl4 (diluted with 20 volume of ethanol) was added into the incubation mixture, reincubated for 20 minutes. The production of MDA was determined by the method of thiobarbituric acid.

[2] = tested on: liver; assay: Liver weight and microsomal protein content (Table 7); type: in vivo, mice (male Kunming strain)
Experimental: as §1
(§3) The liver microsomal cytochrome P-450 plays a key role in the detoxification of xenobiotics. […] Mice were administered 250 mg/kg of the compound once daily for 3 days. The control mice received the vehicle. The mice were killed after fasting overnight. Liver microsomes were prepared and microsomal monooxygenases were determined.

[3] = tested on: cytochrome b5; assay: Hepatic cytochrome b5 in mice (Table 7); type: in vivo, mice (male Kunming strain)
Experimental: as §1, §3

[4] = tested on: CCl4 intoxicated mice; assay: Effect on SGPT level of CCl4-intoxicated mice (pretreatment, Table 1); type: in vivo, mice (male Kunming strain)
Experimental: as §1
(§4) The parameters adopted for hepatotoxicicity included serum tranaminase (SGPT), liver triglycerides, and pathological examination of liver tissues. The liver lesions were scored mainly by the extent of inflammation and necrosis and graded from 0 to 4.
Mice were divided into several groups.
The control group received the vehicle. The other groups were given two doses of the compound (250 mg/kg) at an interval of 8 h, respectively. All the mice were injected ip 10 ml/kg of 0.1% CCl4 in vegetable oil 24 h after the last administration of the compound. The mice were fasted for 16 h and sacrificed by decapitation. SGPT and liver lipids were determined. A piece of liver was processed into sectins for pathological examination.

[5] = tested on: benzo(a)pyrene hydroxylase; assay: Hepatic AHH / benzo(a)pyrene hydroxylase in mice (Table 7); type: in vivo, mice (male Kunming strain)
Experimental: as §1, §3

[6] = tested on: CCl4 hepatotoxicity in mice; assay: Therapeutic effect on CCl4 (0.15%) hepatotoxicity in mice (Table 2); type: in vivo, mice (male Kunming strain)
Experimental: as §1, §4
In the experiments of anti-CCl4 hepatotoxicity, mice were first injected 10 ml/kg of 0.15% CCl4 in vegetable oil every other day for three doses. The treatment of mice with the compound (250 mg/kg daily) started from the second to fifth day after the first injection of CCl4. The determination of SGPT and pathological examination of liver tissues were performed on day 7 of the experiment.

[7] = tested on: CCl4 hepatotoxicity in mice; assay: Protective action against CCl4 (0.1%) hepatotoxicity in mice (Table 3); type: in vivo, mice (male Kunming strain); settings: for SGPT (± SE): two doses, 9 per group, control 3016 ± 23; for SGPT (± SE) / Liver lipids: CCl4 0.1% 10 ml/kg i.p.; for Liver lipids: control 21.0 ± 4.2; for decreasing SGPT level and liver injuries (in words): CCl4 0.1% ip
Experimental: as §1, §4
In another experiment, mice were first administered two doses of the compound and injected ip 10 ml/kg of 0.1% CCl4 in vegetable oil 24 h after administration of the second dose.

[8] = tested on: aminopyrine demethylase; assay: Hepatic aminopyrine demethylase in mice (Table 7); type: in vivo, mice (male Kunming strain)
Experimental: as §1, §3

[9] = tested on: hepatic microsomal cytochrome P-450; assay: Induction of hepatic microsomal cytochrome P-450 in mice (Table 7); type: in vivo, mice (male Kunming strain); settings: for hepatic cytochrome P-450 (in words): 250 mg/kg once daily, 3 days
Experimental: as §1, §3
(§5) In another experiment, mice were given a dose of 250 mg/kg of the compound. Sodium pentobarbital (50 mg/kg) was injected ip 1 and 24 h after administration of the compound. The sleeping time was estimated by recording the interval of disappearance and recovery of righting reflex. […] It means that the prolongation of pentobarbital sleeping time by the compound was due to the inhibition of liver drug metabolism enzyme.

[10] = tested on: pentobarbital sleeping time in mice; assay: Pentobarbital sleeping time in mice (Table 8); type: in vivo, mice (male Kunming strain); settings: for Sleeping time (X ± SE): 250 mg/kg, 10 per group, control 71 ± 7, P <0.01, in min (unit assumed)
Experimental: as §1, §5

[11] = tested on: acetaminophen hepatotoxicity in mice; assay: Anti-acetaminophen hepatotoxicity experiment in mice; type: in vivo, mice (male Kunming strain); settings: 250 mg/kg two doses first day and same dose second day; acetaminophen 150 mg/kg ip
Experimental: as §1, §4
In the anti-acetaminophen hepatotoxicity experiment, mice received two doses (250 mg/kg) of the compound on the first day and the same dose on the second day. A dose of 150 mg/kg of acetaminophen was injected ip 6 h after the last dose of the compound, SGPT was determined and liver tissues were examined 20 h after acetaminophen injection.

[12] = tested on: microsomal lipids; assay: 14CCl4 covalent binding to microsomal lipids; type: biochemical, mice; settings: 1 mM, NADPH-reduced liver microsomes
Experimental: as §1, §2
The condition of incubation was similar to that of MDA production. The compound was pre-incubated with NADPH-reduced liver microsomes for 10 minutes. The final concentration of the compound was 1 mM. ^14 CCl4 0.5 uci was added to the incubation mixture. Incubation was continued for another 60 minutes. The radio-activity of ^14 CCl4 in microsomal lipids and proteins was separated by the method of extraction of diene conjugates and counted by liquid scintillation.

[13] = listed as compound of the general formula (I), R1 =H, R2 =CH3

## CN(CCc1ccccc1)C(=O)C(O)C(O)c1ccccc1 (centres unmarked) [Compound, 2,3-dihydroxy-N-methyl-3-phenyl-N-(2-phenylethyl)-propionic acid amide]
[1]
  Inhibition of MDA: 16.3%
  MDA production / lipid peroxidation of microsomes induced by CCl4 (in words): inhibited MDA production initiated by CCl4 in vitro
[1]; [13]
  MDA production / lipid peroxidation of microsomes induced by CCl4 (in words): could inhibit lipid peroxidation
[1]; number of determinations 3, control 35.5
  MDA: 29.7 ± 4 OD × 100/1.5 mg
[2]; 250 mg/kg day × 3, 6 per group, control 4.0 ± 0.2, P >0.05
  Liver weight: 4.3 ± 0.2 g %
[2]; 250 mg/kg day × 3, control 6.3 ± 0.3, P >0.05
  Microsomal protein: 7.0 ± 0.5 mg/g liver
[2]; 250 mg/kg once daily, 3 days
  increase of liver size (in words): not seen
  increase of microsomal protein content (in words): not seen
[3]; 250 mg/kg day × 3, control 0.15 ± 0.01, P >0.05
  Cytochrome b5: 0.16 ± 0.016 nmol/mg protein
[3]; 250 mg/kg once daily, 3 days
  cytochrome b5 (in words): increased significantly
[4]; 250 mg/kg × 2, oral, 0.1% CCl4 10 ml/kg ip 24 h later, 9 per group, control 1678 ± 261, P <0.05
  SGPT (X ± SE): 727 ± 266 unit %
[4]; 250 mg/kg × 2, CCl4 ip
  effect on elevated SGPT of CCl4-intoxicated mice (in words): significantly decreased the elevated SGPT
[4]; mouse, in vivo
  hepatoprotective action against CCl4 (conclusion, in words): has hepatoprotective action against CCl4
[5]; 250 mg/kg day × 3, control 2.6 ± 0.4, P <0.01
  AHH: 6.2 ± 0.42 nmol/min/mg protein
[5]; 250 mg/kg once daily, 3 days
  benzo(a)pyrene hydroxylase activity (in words): increased significantly
[6]; 250 mg/kg daily, day 7 examination
  effect on liver lesions (in words): no effect on liver lesions
[6]; 250 mg/kg daily, second to fifth day after first CCl4
  SGPT lowering action (in words): significant SGPT lowering action
[6]; 250 mg/kg/day × 4, CCl4 0.15% in vegetable oil 10 ml/kg × 3, 8 per group, control 2695 ± 110, P <0.01
  SGPT (x ± SE): 1801 ± 312 unit %
[7]; 125 mg/kg
  SGPT (± SE): 2727 ± 162 unit %
  Liver lipids: 21.0 ± 3.8 mg/g
  decreasing SGPT level and liver injuries (in words): without effect
[7]; 250 mg/kg, footnote <0.01
  SGPT (± SE): 2270 ± 221 unit %
[7]; 250 mg/kg
  Liver lipids: 22.5 ± 5.5 mg/g
  decreasing SGPT level and liver injuries (in words): effective for decreasing SGPT level and liver injuries
[7]; 250 mg/kg, graded from 0 to 4, control 1.70
  Liver lesions, Inflammation (Grade): 0.16 Grade
[7]; 250 mg/kg, graded from 0 to 4, control 2.33
  Liver lesions, Necrosis (Grade): 0.72 Grade
[8]; 250 mg/kg day × 3, control 81 ± 63, P <0.01
  Aminopyrine demethylase: 107 ± 5.8 nmol HCHO/min/mg protein
[8]; 250 mg/kg once daily, 3 days
  aminopyrine demethylase activity (in words): increased significantly
[9]; 250 mg/kg day × 3, control 0.87 ± 0.07, P <0.01
  Cytochrome P-450: 1.23 ± 0.06 nmol/mg protein
[9]
  hepatic cytochrome P-450 (in words): increased significantly
[9]; [13]
  hepatic cytochrome P-450 (in words): inducing action on hepatic cytochrome p-450
[9]; concluded from barbiturate sleeping times
  biphasic actions on hepatic microsomal cytochrome p-450 (in words): inhibition followed by induction
[10]; 1 h before pentobarbital 50 mg/kg ip
  Sleeping time (X ± SE): 132 ± 13
[10]; 24 h before pentobarbital 50 mg/kg ip
  Sleeping time (X ± SE): 45 ± 6
[10]; compound 1 h prior to pentobarbital
  pentobarbital sleeping time (in words): prolonged markedly
[10]; compound 24 h before pentobarbital
  pentobarbital sleeping time (in words): shortened significantly
[11]
  anti-acetaminophen hepatotoxicity (in words): inactive
[12]
  covalent binding of 14CCl4 to microsomal lipids (in words): not inhibited
